Test results published in US7622469B2, “2,4-diamino-1,3,5-triazine derivatives” (Hamari Chemicals, Ltd., priority 2002, dated 2009).

Tests used:
VRE 49 [1] = assay: Bactericidal activity test (MBC, phenol coefficient measuring method); assay type: cell-based, vancomycin-resistant enterococci
Procedure: (§1) As a test bacterium, the same bacteria species as those of the antibacterial activity test were used; as a medium to be used, a SCD medium (manufactured by Eiken Chemical Co., Ltd.) was used for pre-culture medium; and a heart infusion bouillon medium (manufactured by Eiken Chemical Co., Ltd.) was used as a medium for growing a live bacterium in a test solution after bactericidal treatment. One platinum loop of a test bacterium was inoculated into 20 ml of a medium, and static culture was carried out at 37° C. for 18 to 20 hours, and the cells were adjusted with a sterilized physiological saline to 1×10^7/ml, which was used as a test bacterium solution.
(§2) Then, a solution of each compound in methanol was subjected to ½ stepwise dilution with sterilized water, each 5 ml was dispensed into a test tube, 0.5 ml of the previously prepared test bacterium solution was added thereto, and the mixture was blended well. After 1 minute, 3 minutes and 5 minutes has passed, 5 μl of the test solution was collected and inoculated into 2 ml of a heart infusion bouillon medium, this was cultured at 37° C. for 40 to 48 hours, and the presence or absence of growth of a bacterium was determined. A test was performed three times, a minimum concentration at which growth of a bacterium was not recognized two or more times was adopted as a minimal bactericidal concentration (MBC value).
(§3) Numerical values in Tables represent MBC expressed in μg/ml unit.

MRSA KM 97-53 [2] = assay: as above; assay type: cell-based, methicillin-resistant Staphylococcus aureus
Procedure: as §1, §2, §3

MRSA 97-115 [3] = assay: as above; assay type: cell-based, methicillin-resistant Staphylococcus aureus
Procedure: as §1, §2, §3

MRSA KM 97-108 [4] = assay: as above; assay type: cell-based, methicillin-resistant Staphylococcus aureus
Procedure: as §1, §2, §3

VRE 49 [5] = assay: Antibacterial activity test (MIC); assay type: cell-based, vancomycin-resistant enterococci; conditions: Mueller-Hinton Broth, 37° C., 20 to 24 hours
Procedure: Regarding compounds obtained in respective Working Examples, in order to investigate antibacterial activity, minimal inhibitory concentration (MIC) was determined according to a standard method of Japanese Society of Chemotherapy.
As a test bacterium, nine kinds of S. aureus 209PJC, MRSA 97-115, MRSA KM 97-53, MRSA KM97-108, VRE 49, E. coli NIHJ JC-2, P. aeruginosa PAO-1, P. aeruginosa No. 12, P. aeruginosa KM97-5 were used and, as a medium, Mueller-Hinton Broth (DIFCO) was used. One platinum loop of a test bacterium was inoculated into 20 ml of a medium, and static culture was carried out at 37° C. for 16 to 20 hours, and then each bacterium species was diluted with a sterilized physiological saline to 10^5/ml, which was used as a test bacterium solution.
Then, each compound was dissolved in methanol, subjected to ½ stepwise dilution with a medium to prepare a medium for measuring sensitivity, and each 2 ml was dispensed into a test tube. A compound concentration in a medium was adjusted to 100 μg/ml and its 2^n-fold (n=−10 to 1).
Numerical values in Tables represent MIC expressed in μg/ml unit.

MRSA KM 97-53 [6] = assay: Antibacterial activity test (MIC); assay type: cell-based, methicillin-resistant Staphylococcus aureus; conditions: Mueller-Hinton Broth, 37° C., 20 to 24 hours
How it was run: (§4)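 Broth dilution MIC per the Japanese Society of Chemotherapy standard method in Mueller-Hinton Broth. Strains were grown statically at 37° C for 16 to 20 hours and diluted in sterile saline to 10^5/ml. Compounds were dissolved in methanol and serially diluted twofold in medium, giving 100 μg/ml and 2^n-fold (n=−10 to 1).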

MRSA 97-115 [7] = assay: Antibacterial activity test (MIC); assay type: cell-based, methicillin-resistant Staphylococcus aureus; conditions: Mueller-Hinton Broth, 37° C., 20 to 24 hours
How it was run: as §4

MRSA KM 97-108 [8] = assay: Antibacterial activity test (MIC); assay type: cell-based, methicillin-resistant Staphylococcus aureus; conditions: Mueller-Hinton Broth, 37° C., 20 to 24 hours
How it was run: as §4

P. aeruginosa KM 97-5 [9] = assay: Bactericidal activity test (MBC, phenol coefficient measuring method); assay type: cell-based
Procedure: as §1, §2, §3

E. coli NIHJ JC-2 [10] = assay: as above; assay type: cell-based
Procedure: as §1, §2, §3

P. aeruginosa PAO-1 [11] = assay: as above; assay type: cell-based
Procedure: as §1, §2, §3

S. aureus 209PJC [12] = assay: as above; assay type: cell-based
Procedure: as §1, §2, §3

P. aeruginosa No. 12 [13] = assay: as above; assay type: cell-based
Procedure: as §1, §2, §3

P. aeruginosa KM 97-5 [14] = assay: Antibacterial activity test (MIC); assay type: cell-based; conditions: Mueller-Hinton Broth, 37° C., 20 to 24 hours
How it was run: as §4

E. coli NIHJ JC-2 [15] = assay: Antibacterial activity test (MIC); assay type: cell-based; conditions: Mueller-Hinton Broth, 37° C., 20 to 24 hours
How it was run: as §4

P. aeruginosa PAO-1 [16] = assay: Antibacterial activity test (MIC); assay type: cell-based; conditions: Mueller-Hinton Broth, 37° C., 20 to 24 hours
How it was run: as §4

S. aureus 209PJC [17] = assay: Antibacterial activity test (MIC); assay type: cell-based; conditions: Mueller-Hinton Broth, 37° C., 20 to 24 hours
How it was run: as §4

P. aeruginosa No. 12 [18] = assay: Antibacterial activity test (MIC); assay type: cell-based; conditions: Mueller-Hinton Broth, 37° C., 20 to 24 hours
How it was run: as §4

minimal inhibitory concentration (MIC) (VRE 49 [5]) | minimal inhibitory concentration (MIC) (MRSA KM 97-53 [6]) | minimal inhibitory concentration (MIC) (MRSA 97-115 [7]) | minimal inhibitory concentration (MIC) (MRSA KM 97-108 [8]) | Compound | minimal bactericidal concentration (MBC) (VRE 49 [1]; 1 min) | minimal bactericidal concentration (MBC) (VRE 49 [1]; 3 min) | minimal bactericidal concentration (MBC) (VRE 49 [1]; 5 min) | minimal bactericidal concentration (MBC) (MRSA KM 97-53 [2]; 1 min) | minimal bactericidal concentration (MBC) (MRSA KM 97-53 [2]; 3 min) | minimal bactericidal concentration (MBC) (MRSA KM 97-53 [2]; 5 min) | minimal bactericidal concentration (MBC) (MRSA 97-115 [3]; 1 min) | minimal bactericidal concentration (MBC) (MRSA 97-115 [3]; 3 min) | minimal bactericidal concentration (MBC) (MRSA 97-115 [3]; 5 min) | minimal bactericidal concentration (MBC) (MRSA KM 97-108 [4]; 1 min) | minimal bactericidal concentration (MBC) (MRSA KM 97-108 [4]; 3 min) | minimal bactericidal concentration (MBC) (MRSA KM 97-108 [4]; 5 min) | minimal bactericidal concentration (MBC) (P. aeruginosa KM 97-5 [9]; 1 min) | minimal bactericidal concentration (MBC) (P. aeruginosa KM 97-5 [9]; 3 min) | minimal bactericidal concentration (MBC) (P. aeruginosa KM 97-5 [9]; 5 min) | minimal bactericidal concentration (MBC) (E. coli NIHJ JC-2 [10]; 1 min) | further results
1.6 µg/mL | 1.6 µg/mL | 0.4 µg/mL | 1.6 µg/mL | CC(=O)O.CCCCCCCCNC1=NC(C)(C)N=C(NCc2ccc(C)cc2)N1 [compound 58] | 25 µg/mL | 25 µg/mL | 12.5 µg/mL | 50 µg/mL | 50 µg/mL | 25 µg/mL | 25 µg/mL | 25 µg/mL | 12.5 µg/mL | 50 µg/mL | 50 µg/mL | 25 µg/mL | 6.3 µg/mL | 3.1 µg/mL | 3.1 µg/mL | 12.5 µg/mL | minimal bactericidal concentration (MBC) (E. coli NIHJ JC-2 [10]; 3 min): 6.3 µg/mL; minimal bactericidal concentration (MBC) (E. coli NIHJ JC-2 [10]; 5 min): 6.3 µg/mL; minimal bactericidal concentration (MBC) (P. aeruginosa PAO-1 [11]; 1 min): 12.5 µg/mL; minimal bactericidal concentration (MBC) (P. aeruginosa PAO-1 [11]; 3 min): 6.3 µg/mL; minimal bactericidal concentration (MBC) (P. aeruginosa PAO-1 [11]; 5 min): 3.1 µg/mL; minimal bactericidal concentration (MBC) (S. aureus 209PJC [12]; 1 min): 6.3 µg/mL; minimal bactericidal concentration (MBC) (S. aureus 209PJC [12]; 3 min): 3.1 µg/mL; minimal bactericidal concentration (MBC) (S. aureus 209PJC [12]; 5 min): 3.1 µg/mL; minimal bactericidal concentration (MBC) (P. aeruginosa No. 12 [13]; 1 min): 6.3 µg/mL; minimal bactericidal concentration (MBC) (P. aeruginosa No. 12 [13]; 3 min): 6.3 µg/mL; minimal bactericidal concentration (MBC) (P. aeruginosa No. 12 [13]; 5 min): 3.1 µg/mL; minimal inhibitory concentration (MIC) (P. aeruginosa KM 97-5 [14]): 25 µg/mL; minimal inhibitory concentration (MIC) (E. coli NIHJ JC-2 [15]): 12.5 µg/mL; minimal inhibitory concentration (MIC) (P. aeruginosa PAO-1 [16]): 12.5 µg/mL; minimal inhibitory concentration (MIC) (S. aureus 209PJC [17]): 0.4 µg/mL; minimal inhibitory concentration (MIC) (P. aeruginosa No. 12 [18]): 25 µg/mL
3.1 µg/mL | 3.1 µg/mL | 3.1 µg/mL | 3.1 µg/mL | N=C(NCCCCCCNC(=N)NC(=N)Nc1ccc(Cl)cc1)NC(=N)Nc1ccc(Cl)cc1.O=C(O)[C@H](O)[C@@H](O)[C@H](O)[C@H](O)CO.O=C(O)[C@H](O)[C@@H](O)[C@H](O)[C@H](O)CO [Control drug, chlorhexidine gluconate, reference compound] | >1000 µg/mL | >1000 µg/mL | >1000 µg/mL | 500 µg/mL | 250 µg/mL | 250 µg/mL | 1000 µg/mL | 250 µg/mL | 125 µg/mL | 500 µg/mL | 500 µg/mL | 500 µg/mL | 31 µg/mL | 16 µg/mL | 8 µg/mL | 62.5 µg/mL | minimal bactericidal concentration (MBC) (E. coli NIHJ JC-2 [10]; 3 min): 31.3 µg/mL; minimal bactericidal concentration (MBC) (E. coli NIHJ JC-2 [10]; 5 min): 15.6 µg/mL; minimal bactericidal concentration (MBC) (S. aureus 209PJC [12]; 1 min): 62.5 µg/mL; minimal bactericidal concentration (MBC) (S. aureus 209PJC [12]; 3 min): 62.5 µg/mL; minimal bactericidal concentration (MBC) (S. aureus 209PJC [12]; 5 min): 62.5 µg/mL; minimal bactericidal concentration (MBC) (P. aeruginosa No. 12 [13]; 1 min): 125 µg/mL; minimal bactericidal concentration (MBC) (P. aeruginosa No. 12 [13]; 3 min): 32 µg/mL; minimal bactericidal concentration (MBC) (P. aeruginosa No. 12 [13]; 5 min): 32 µg/mL; minimal inhibitory concentration (MIC) (P. aeruginosa KM 97-5 [14]): 12.5 µg/mL; minimal inhibitory concentration (MIC) (E. coli NIHJ JC-2 [15]): 1.6 µg/mL; minimal inhibitory concentration (MIC) (S. aureus 209PJC [17]): 0.2 µg/mL; minimal inhibitory concentration (MIC) (P. aeruginosa No. 12 [18]): 12.5 µg/mL
1.6 µg/mL | 1.6 µg/mL | 0.8 µg/mL | 1.6 µg/mL | CC(=O)O.CCCCCCCCNC1=NC(C)(C)N=C(NCCCCCC)N1 [compound 68] | 25 µg/mL | 25 µg/mL | 12.5 µg/mL | 50 µg/mL | 25 µg/mL | 25 µg/mL | 12.5 µg/mL | 6.3 µg/mL | 6.3 µg/mL | 50 µg/mL | 25 µg/mL | 25 µg/mL | 12.5 µg/mL | 6.3 µg/mL | 6.3 µg/mL | 12.5 µg/mL | minimal bactericidal concentration (MBC) (E. coli NIHJ JC-2 [10]; 3 min): 6.3 µg/mL; minimal bactericidal concentration (MBC) (E. coli NIHJ JC-2 [10]; 5 min): 6.3 µg/mL; minimal bactericidal concentration (MBC) (P. aeruginosa PAO-1 [11]; 1 min): 6.3 µg/mL; minimal bactericidal concentration (MBC) (P. aeruginosa PAO-1 [11]; 3 min): 3.1 µg/mL; minimal bactericidal concentration (MBC) (P. aeruginosa PAO-1 [11]; 5 min): 1.6 µg/mL; minimal bactericidal concentration (MBC) (S. aureus 209PJC [12]; 1 min): 12.5 µg/mL; minimal bactericidal concentration (MBC) (S. aureus 209PJC [12]; 3 min): 6.3 µg/mL; minimal bactericidal concentration (MBC) (S. aureus 209PJC [12]; 5 min): 6.3 µg/mL; minimal bactericidal concentration (MBC) (P. aeruginosa No. 12 [13]; 1 min): 3.1 µg/mL; minimal bactericidal concentration (MBC) (P. aeruginosa No. 12 [13]; 3 min): 3.1 µg/mL; minimal bactericidal concentration (MBC) (P. aeruginosa No. 12 [13]; 5 min): 1.6 µg/mL; minimal inhibitory concentration (MIC) (P. aeruginosa KM 97-5 [14]): 50 µg/mL; minimal inhibitory concentration (MIC) (E. coli NIHJ JC-2 [15]): 12.5 µg/mL; minimal inhibitory concentration (MIC) (P. aeruginosa PAO-1 [16]): 50 µg/mL; minimal inhibitory concentration (MIC) (S. aureus 209PJC [17]): 0.8 µg/mL; minimal inhibitory concentration (MIC) (P. aeruginosa No. 12 [18]): 50 µg/mL
